US20180037601A1, “Nucleoside-Based Anti-Bacterial and Anti-Protozoan Drugs” (UTI Limited Partnership, priority 2015, published 2018)
pIC50: −log10 of the molar value. “And” between values parts separate entries of the source, which are not always exact repeats. Identical values can stand only once. Like-named read-outs stand apart in the source and are kept apart here. Values belong to the molecule of their own block, whether it stands above or below them.

How the values were obtained:
T.b gambiense = settings: literature ref. 30; cited from earlier work
T.b. rhodesiense = settings: literature ref. 30; cited from earlier work
L. donovani = settings: literature ref. 55; cited from earlier work
[1] = test system: Plasmodium falciparum (KI), erythrocytic stages; test: In vitro growth inhibition assay of P. falciparum, [3H]-hypoxanthine incorporation; type: cell-based
Source text: (§1) Each of the nucleoside analogues was examined for in vitro activity against four parasites, T.b. rhodesiene, T. cruzi, L. donovoni and P. falciparum, as well as for cytotoxicity toward the L6 rat myoblast cell line.
(§2) All IC50 values are expressed as micromolar. Cytotoxicity (L6 rat myoblast cells); average of duplicate determinations. Trypanosoma brucei rhodesiense (STIB900); average of duplicate determinations. Selectivity index for T.b. rhodesiense (SIr); expressed as the ratio [IC50 (L6/IC50 (T.b. rhodesiense)]. Plasmodium falciparum ([…], resistant to chloroquine); average of duplicate determinations. Selectivity index for P. falciparum (SIp), expressed as the ratio [IC50 (L6/IC50 (P. falciparum)]. Leishmania donovani (MHOM/SD/62/IS-CL2D) axenic amastigotes; average of duplicate determinations. Selectivity index for L. donovani (SIL), expressed as the ratio [IC50 (L6/IC50 (L. donovani)]. Trypanosoma cruzi; average of duplicate determinations. Selectivity index for T. cruzi (SIC), expressed as the ratio [IC50(L6/IC50(T. cruzi)]. IA. Nucleoside analogs designed to be activated via Pathway I. IB. Nucleoside analogs designed to be activated via Pathway II. Phth=phthalimido.
In vitro growth inhibition assay of P. falciparum (KI). The determination of IC50 values against erythrocytic stages of P. falciparum was carried out in duplicate using the [^3H]-hypoxanthine incorporation assay.^58,59

[2] = test system: Trypanosoma brucei rhodesiense (STIB900); test: In vitro growth inhibition assay of T.b. rhodesiense (STIB900), Alamar blue; type: cell-based
Source text: as §1, §2
Preparation of compounds for assay. Compounds were dissolved in 100% dimethyl sulfoxide (DMSO) and diluted in the culture medium prior to the in vitro assay. The DMSO concentration never exceeded 1% in the in vitro Alamar Blue assays at the highest drug concentration.
In vitro growth inhibition assay of T.B. rhodesiense (STIB900). IC50 values were determined using the Alamar blue assay and were carried out twice independently and in duplicate as described.^57

[3] = test system: Leishmania donovani (MHOM/SD/62/IS-CL2D) axenic amastigotes; test: In vitro growth inhibition assay of L. donovani axenic amastigotes, CellTiter; type: cell-based; settings: for pIC50: Leishmania donovani, axenic amastigotes, average of duplicate determinations, read-out: IC50 against L. donovani
Source text: as §1, §2
In vitro growth inhibition assay of L. Donovani. Axenic amastigotes of L. Donovaniwere adapted from promastigotes and grown in the amastigote medium previously described.^60 The tetrazolium dye-based CellTiter reagent (Promega, Madison, Wis.) was used to assess parasite growth.^61

Trypanosoma cruzi = test: In vitro activity against T. cruzi; type: cell-based; settings: for pIC50: Trypanosoma cruzi
Source text: as §1, §2

[4] = In vitro cytotoxicity assay (L6 rat myoblast cells), Alamar blue; type: cell-based; settings: read-out: Cytotoxicity IC50 toward L6 mammalian cell line
Source text: as §1, §2
In vitro cytoxicity assay (L6 Rat Myoblast cells). IC50 values were determined using the Alamar blue assay^62 and were carried out twice independently.

Leishmania donovani [5] = settings: literature ref. 29; cited from earlier work
Leishmania donovani [6] = settings: literature ref. 29; cited from earlier work; remark: listed apart in the source
[7] = average of duplicate determinations, read-out: IC50 against T. cruzi

Structure (SMILES): O=C1N=CN=C2C([C@@H]3O[C@H](CO)[C@@H](O)[C@H]3O)=CN=C12 [9-deaza-inosine]
Activity against T.b gambiense (T.b gambiense): active
Activity against T.b. rhodesiense (T.b. rhodesiense): active
Activity against L. donovani in a squirrel monkey in vivo model (L. donovani): activity

Structure (SMILES): CSC[C@H]1O[C@@H](n2cnc3c(N)nc(F)nc32)[C@H](O)[C@@H]1O [ACT-51, 5′-Deoxy-2-fluoro-5′-(methylthio)adenosine]
Activity against P. falciparum (in words) [1]: strong activity
Activity against Trypanosoma brucei (in words) [2]: strong activity
Activity against L. donovani (in words) [3]: strong activity
pIC50 (Trypanosoma cruzi; [7]): 5.59
pIC50 [4]: 6.23

Structure (SMILES): CSC[C@H]1O[C@@H](n2cnc3c(N(C)N=O)nc(F)nc32)[C@H](O)[C@@H]1O [ACT-88, 5′-Deoxy-2-fluoro-N^6-methyl-5′-methylthio-N^6-nitrosoadenosine]
pIC50 ([1]; Plasmodium falciparum, read-out: IC50 against Plasmodium falciparum): 6.96
Selectivity index for P. falciparum (SIp) ([1]; ratio IC50 (L6)/IC50 (P. falciparum)): 983 and 1254
Activity against Trypanosoma brucei (in words) [2]: absence
Activity against L. donovani (in words) [3]: absence
Activity against Trypanosoma cruzi (in words) (Trypanosoma cruzi): absence

Structure (SMILES): Nc1nc(Cl)c2ccn(C3O[C@H](CO)[C@@H](O)[C@H]3O)c2n1 (stereo partly drawn) [ACT-91, 2-Amino-6-chloro-7-deaza-9-(D-ribofuranosyl)purine]
pIC50 ([2]; Trypanosoma brucei, STIB900, average of duplicate determinations, read-out: IC50 against T.b. rhodesiense): 6.89
pIC50 [3]: 7.22
Selectivity index for L. donovani (SIL) ([3]; ratio IC50 (L6)/IC50 (L. donovani)): 2720 and 2717
melting point: 172 to 173 °C
pIC50 (Trypanosoma cruzi; [7]): 5.47
Selectivity index for T. cruzi (SIC) (Trypanosoma cruzi; ratio IC50 (L6)/IC50 (T. cruzi)): 48

Structure (SMILES): CC(=O)O[C@@H]1[C@H](OC(C)=O)[C@@H](CN=[N+]=[N-])O[C@H]1n1cnc2c(N)nc(Cl)nc21 [Compound 41, 2′,3′-Di-O-Acetyl-5′-azido-2-chloro-5′-deoxyadenosine]
melting point: 75 to 77 °C

Structure (SMILES): CC(=O)O[C@@H]1[C@H](OC(C)=O)[C@@H](CN2C(=O)c3ccccc3C2=O)O[C@H]1n1cnc2c(N)nc(F)nc21 [Compound 44, 2′,3′-Di-O-acetyl-5′-deoxy-2-fluoro-5′-phthalimidoadenosine]
melting point: 237 to 239 °C

Structure (SMILES): CC(=O)O[C@@H]1[C@H](OC(C)=O)[C@@H](CN2C(=O)c3ccccc3C2=O)O[C@H]1n1cnc2c(N)nc(Cl)nc21 [Compound 45, 2′,3′-Di-O-acetyl-2-chloro-5′-deoxy-5′-phthalimidoadenosine]
melting point: 256 °C

Structure (SMILES): CC(=O)O[C@@H]1[C@H](OC(C)=O)[C@@H](CI)O[C@H]1n1cnc2c(N)nc(F)nc21 [Compound 46, 2′,3′-Di-O-acetyl-5′-deoxy-2-fluoro-5′-iodoadenosine]
melting point: 181 to 182 °C

Structure (SMILES): O=c1[nH]cnc2c([C@@H]3O[C@H](CO)[C@@H](O)[C@H]3O)n[nH]c12 [Formycin B]
Activity against T.b gambiense (T.b gambiense): active
Therapeutic activity in a hamster model (Leishmania donovani [5]): therapeutically active
Activity against T.b. rhodesiense (T.b. rhodesiense): active
Inhibition of Leishmania donovani in vitro (Leishmania donovani [6]): inhibits

Other lines, results leading:

melting point: 93 °C
Structure (SMILES): CC(=O)O[C@@H]1[C@H](OC(C)=O)[C@@H](CI)O[C@H]1n1cnc2c(N)nc(Cl)nc21 [Compound 47, 2′,3′-Di-O-acetyl-2-chloro-5′-deoxy-5′-iodoadenosine]

melting point: 222 to 223 °C
Structure (SMILES): [N-]=[N+]=NC[C@H]1O[C@@H](n2cnc3c(N)nc(Cl)nc32)[C@H](O)[C@@H]1O [Compound 49, 5′-Azido-2-chloro-5′-deoxyadenosine]

melting point: 168 to 169 °C
Structure (SMILES): CSC[C@H]1O[C@@H](n2cnc3c(N)nc(NN)nc32)[C@H](O)[C@@H]1O [Compound 58, 5′-Deoxy-2-hydrazino-5′-(methylthio)adenosine]

melting point: 184 to 185 °C
Structure (SMILES): CSC[C@H]1O[C@@H](n2cnc3c(N)nc(C#N)nc32)[C@H](O)[C@@H]1O [Compound 71, 2-Cyano-5′-deoxy-5′-(methylthio)adenosine]

melting point: 193 to 194 °C
Structure (SMILES): CNc1nc(C#N)nc2c1ncn2[C@@H]1O[C@H](C)[C@@H](O)[C@H]1O [Compound 72, 2-Cyano-5′-deoxy-N^6-methyladenosine]

melting point: 193 to 194 °C
Structure (SMILES): CNc1nc(C#N)nc2c1ncn2[C@@H]1O[C@H](CSC)[C@@H](O)[C@H]1O [Compound 73, 2-Cyano-5′-deoxy-N^6-methyl-5′-(methylthio)adenosine]

pIC50 (Trypanosoma cruzi; standard drug listed in the table, read-out: IC50 against T. cruzi (standard)): 6.37
Structure (SMILES): O=C(Cn1ccnc1[N+](=O)[O-])NCc1ccccc1 [benznidazole, reference compound]

pIC50 [3]: 6.91
Structure (SMILES): CCCCCCCCCCCCCCCCOP(=O)([O-])OCC[N+](C)(C)C [miltefosine, reference compound]
